The values that follow are results of earlier work, collected in patent publication US6627208B2, “Biocidal material with improved activity” (Eastman Kodak Company, priority 1999, dated 2003).

Converted amounts (≈) assume the structure as drawn.

The conditions of this series: limit of solubility.

On to `CCCCCCCCn1sc(Cl)c(Cl)c1=O` [Kathon 287T®], for which the solubility in water was 5 µg/mL (≈ 17.7 µM).
